Key:
[1] = test system: MES-SA human uterine cells; experiment: Proliferation of MES-SA cells with BSO and GdTex (MTT); format: cell-based
Method: The proliferation of MES-SA human uterine cells grown in McCoys 5A medium in the presence of a thiol depleting agent (BSO) or GdTex was used to assess the combined effect of these agents. The protocol outlined in the previous example was followed, with the following changes:
1. The serially diluted compound was 200 μM BSO (Sigma Chemical, St. Louis, Mo., catalogue no. G1404).
2. The cells were allowed to incubate in the presence of the two drugs for ca. 72 hours, prior to exchange of media and analysis using the colorimetric (MTT) assay, as described, e.g., in Example 5.

MES-SA cells = experiment: Radiation sensitization by clonogenic assay; format: cell-based, human
Method: The response of MES-SA cells to ionizing radiation was studied using a clonogenic assay format to confirm radiation sensitization potential.
Materials and Methods. MES-SA cells (200 to 5,000 cells per dish) were plated in T-25 flasks in 8.5 mL McCoys 5A containing 10% FBS (Gibco-BRL) and ca. 2% penicillin/streptomycin solution (Sigma) and incubated at 37° C. overnight. Stock BSO, ascorbate, GdTex (or a control 5% mannitol) solutions were prepared and 0.5 mL of each added to each flask to give a final volume of 10 mL (final concentrations of BSO, ascorbate and GdTex were 100 μM, 5 μM and 50 μM, respectively) and the cells incubated for 24 hr, whereupon the flasks were irradiated using a 137Cs irradiator (Model 40 Gammacell, J. L. Shepherd & Assoc., San Fernando, Calif.) at a dose rate of 0.805 Gy/min. Medium was removed immediately after irradiation, the cells were washed with fresh medium (5.0 mL) followed by the addition of fresh medium (10 mL) and incubation for an additional 11 days. Colonies were fixed and stained with 1% crystal violet and then counted.

[2] = test system: MES-SA human uterine cells; experiment: Proliferation of BSO-treated MES-SA cells with Antimycins A and GdTex (MTT); format: cell-based; settings: BSO pre-treated cells, Antimycins A 0 to 20 μM, GdTex up to 100 μM, 20 h
Method: The proliferation of MES-SA human uterine cells grown in McCoys SA medium in the presence of the thiol depleting agent BSO, with varying concentrations of a mitochondrial inhibitor (Antimycins A) and GdTex was used to assess the combined effect of these agents.
Materials and Methods. MES-SA cells were incubated at 37° C. and allowed to adhere to 96-well microtiter plates (2000 cells per well) overnight in 180 μL McCoys 5A containing 10% FBS (Gibco-BRL) and ca. 2% penicillin/streptomycin solution (Sigma). BSO (20 μL) was added to all wells followed by incubation for a further 24 h. The medium was exchanged and Antimycins A was serially diluted at concentrations ranging from 0 to 20 μM and after 0.5 hr metallotexaphyrin complex (up to 100 μM) was added to the test wells to give a final volume of 200 μL, followed by incubation for 20 h, whereupon the medium was exchanged and the plates were incubated an additional 52 h prior to analysis for viability using the MTT assay.

[3] = Production of H2O2 in the presence of NADPH (Bioxytech H2O2-560 colorimetric); format: biochemical; settings: NADPH plus 0.05 molar equivalent texaphyrin, no catalase, over the course of 100 minutes
Method: • Stock NADPH (Sigma N 7505) (prepared fresh): 10.14 mg/(10 mL×833.4 mg/mmol)=1.217 mM • Stock LuTex: 5.02 mg/(10.0 mL water×1166 mg/mmol)=[…] • Stock 4× Buffer: 200 mM HEPES, pH 7.5; 400 mM NaCl These were combined to form the reaction mixture: 200 μL 4× Buffer, 200 μL NADPH Stock, 371.8 μL Water, 28.2 μL LuTex Stock. This was analyzed as indicated below. As a control, a solution in which the LuTex complex was not added was prepared as above, with suitable adjustment of the volume of water, and analyzed concurrently. In similar manner, a solution was prepared as above except that 2 μL catalase (Boeringer-Mannheim 106 836, now Roche Molecular Biochemicals, Indianapolis, Ind.) was added, and analyzed concurrently.
A reaction mixture was prepared containing NADPH, buffer, and water. Texaphyrin catalyst, eg., 0.05 molar equivalent, was added to this reaction mixture, vortexed briefly, and incubated at ambient temperature in the dark. […] The absorbance at 240 nm was used to standardize this solution, which was further diluted and used to construct a standard H2O2 curve at 560 nm in conjunction with the H2O2 calorimetric reagent. […]
Measurements of the absorbance at 560 nm (with appropriate subtraction of the background absorbance of the reagent at this wavelength) were made of samples taken at the various time points.

In the case of `CC(=O)[O-].CC(=O)[O-].CCc1c(CC)c2cc3nc(cnc4cc(OCCOCCOCCOC)c(OCCOCCOCCOC)cc4ncc4nc(cc1[n-]2)C(CCCO)=C4C)C(C)=C3CCCO.O.[Gd+3]` [GdTex, motexafin gadolinium], the “inhibitory effect of GdTex alone” value ([1]; absence of BSO, ca. 72 hours, McCoys 5A medium) is reported as “ca. 50%”, the “combined effect of GdTex and BSO on cell growth” value ([1]; increasing amounts of GdTex with BSO, data normalized for GdTex alone) is reported as “increase in the cytotoxic dose response of the cells towards BSO” and the “radiation response, co-administration” value (MES-SA cells; 50 μM GdTex and 100 μM BSO co-administered, 24 h prior to irradiation) is reported as “radiation response significantly greater than the sum of the responses obtained from them individually”. The “effect on clonogenic survival as a function of radiation, single agent” value (MES-SA cells; 50 μM GdTex or 100 μM BSO for 24 h prior to irradiation, ascorbate-containing medium) was “relatively small effect on clonogenic survival” and the “combined effect of GdTex and Antimycins A on cell growth” value [2] was “increase in the cytotoxic dose response of the cells towards Antimycins A”.

With `CC(=O)[O-].CC(=O)[O-].CCc1c(CC)c2cc3nc(cnc4cc(OCCOCCOCCOC)c(OCCOCCOCCOC)cc4ncc4nc(cc1[n-]2)C(CCCO)=C4C)C(C)=C3CCCO.O.[Lu+3]` [LuTex, motexafin lutetium] the H2O2 produced [3] was “Approximately 40 μM”.

From patent US7579338B2, “Methods and compositions for treating atheroma, tumors and other neoplastic tissues” (Pharmacyclics, Inc., priority 1999, dated 2009)
